The record followed here is patent US20150141439A1, “PHARMACEUTICAL COMPOSITION FOR THE PREVENTION OR TREATMENT OF BRAIN TUMOR OR TEMODAL RESISTANT GLIOBLASTOMA MULTIFORM COMPRISING AZATHIOPRINE AS AN ACTIVE INGREDIENT” (KOREA RESEARCH INSTITUTE OF CHEMICAL TECHNOLOGY, priority 2012, published 2015).

One may read the IC50 as the concentration needed to halve the response being measured.

The test system of assay [1] is MKN45 Human stomach adenocarcinoma. As to the kind of experiment: Secondary cytotoxicity test, MKN45. The class given is cell-based. The conditions noted are these: MKN-45. On the procedure:
(§1) Particularly, the cell growth inhibition effect was measured by WST-1 cell proliferation assay [http://www.roche-applied-science.com/PROD_INF/MANUALS/CELL_MAN/apoptosis—087—088.pdf]. The compound of formula 1 was loaded in a 384-well cell culture plate. Three types of glioblastoma multiform cell lines [proneural subtype (559T), mesenchymal subtype (592T), and classical subtype (626T)], normal human astrocytes (NHA), a lung cancer cell line (A549), and a glioblastoma multiform cell line (U87MG) were distributed in the plate at the density of 4.5×10^3 cells/well, and the medium was filled up to make 50 μl per well. At this time, the concentration of the solvent DMSO for the compound of formula 1 was no more than 0.2%. After culturing the cells for 72 hours, 5 mg/ml of WST-1 reagent was added by 5 μl per well, followed by reaction for 3˜4 hours. Then OD450 was measured to investigate the effect of the compound of formula 1 on cell proliferation.
(§2) To investigate the cell growth inhibition effect of the compound of formula 1 of the present invention (azathioprine) in many different cell lines, secondary cytotoxicity test was performed with the cell lines listed in Table 5 by the same manner as described in Example 1.

Assay [2] concerns CCD986SK Human fibroblast. Briefly: Secondary cytotoxicity test, CCD986SK. The class given is cell-based. As to conditions: CCD-986Sk. How it is done: as §1, §2
In assay [3] the test system is HepG2 Human hepatocarcinoma. Briefly: Secondary cytotoxicity test, HepG2. Format: cell-based. How it is done: as §1, §2
In assay [4] the test system is MCF-7 Human breast adenocarcinoma. As to the kind of experiment: Secondary cytotoxicity test, MCF-7. The class given is cell-based. The conditions noted are these: MCF7. How it is done: as §1, §2
The subject of assay [5] is NCI-H23 Human lung adenocarcinoma. As to the kind of experiment: Secondary cytotoxicity test, NCI-H23. The class given is cell-based. On the procedure: as §1, §2
In assay [6] the test system is PC3 Human prostate adenocarcinoma. Briefly: Secondary cytotoxicity test, PC3. The class given is cell-based. The conditions noted are these: PC-3. On the procedure:
as §1, §2

Assay [7] has as its system HCT-116 Human colorectal carcinoma. Briefly: Secondary cytotoxicity test, HCT-116. Format: cell-based. On the procedure:
as §1, §2

In assay [8] the test system is HaCat Human keratinocyte. Briefly: Secondary cytotoxicity test, HaCat. Format: cell-based. On the procedure: as §1, §2
In assay [9] the test system is Hela Human adenocarcinoma. Briefly: Secondary cytotoxicity test, Hela. Format: cell-based. On the procedure: as §1, §2
The subject of assay [10] is U2932 Human DLBCL (Diffuse large B-cell lymphoma). As to the kind of experiment: Secondary cytotoxicity test, U2932. Format: cell-based. On the procedure:
as §1, §2

In assay [11] the test system is glioblastoma multiform cells transplanted in the brain of a mouse. As to the kind of experiment: Glioblastoma multiform orthotopic animal model, survival. Format: in vivo. As to conditions: single treatment; for Average Survival Period: Temodal 65 mg/kg oral for 5 days from day 17 after transplantation, control 27 days; for Survival Period Extension Rate (%): vs. untreated control, Temodal 65 mg/kg oral for 5 days from day 17. How it is done:
Following experiment was performed to investigate the radiosensitizing effect and chemosensitizing effect of the compound of formula 1 (azathioprine) in the glioblastoma multiform orthotopic animal model.
Particularly, to investigate the resistance against Temodal or radiotherapy in glioblastoma multiform, glioblastoma multiform cells were cultured. The cultured cells (2×10^5/5 μl) were transplanted in the brain of a mouse. 17 days later, the administration of Temodal (65 mg/kg, oral-administration) or radiotherapy (2 Gy) began, which continued for 5 days. The average survival period was investigated. […] For the comparison, the survival period of the group treated with “Avastin”, the well-known anticancer agent, is also presented.
Glioblastoma multiform, glioblastoma multiform cells were cultured. The cultured cells (2×10^5/5 μl) were transplanted in the brain of a mouse. 17 days later, the administration of Temodal (65 mg/kg, oral-administration) or radiotherapy (2 Gy) began, which continued for 5 days. Unlike the above experiment, the compound of formula 1 of the present invention (azathioprine) was co-treated to the mouse by oral-administration at the dose of 20 mg/kg every day after 11 days from the glioblastoma multiform transplantation in the mouse brain. Then, the average survival period was investigated.

Assay [12] concerns GBM #3 glioblastoma multiform patient originated cells. Briefly: Neurosphere formation inhibition, GBM #3. The class given is cell-based, human. Also noted: key: S: strong effect; I: intermediate effect; R: rare effect. The conditions noted are these: GBM #3, type A (proneural), Temodal 20 μM, duration 21 day. On the procedure:
(§3) Particularly, to investigate neurosphere formation, glioblastoma multiform cells were cultured for a certain time and the cells were distributed again in culture vessels, followed by additional culture. Then, the number of newly generated neurospheres was measured. First, the glioblastoma multiform patient originated cells were sub-cultured, which were distributed in a 96-well plate (20, 50, and 200 cells in 50 μl of culture medium/well). […] Then, the compound of formula 1 (azathioprine) and the compound of Comparative Example 1 (Temodal) were added to 50 μl of cell culture medium with the same concentrations as the above once a week, which were then cultured for 7˜23 days. When neurosphere was formed at least 50 μm in the control group not treated with the compound, the number of neurospheres in each well was counted to compare the neurosphere formation before and after the treatment of the compound of formula 1 (azathioprine) and the compound of Comparative Example 1 (Temodal).
(§4) The glioblastoma multiform cells used in this experiment were classified into 4 types, which are type A, type B, type C, and type D, according to the gene expression pattern. Methylation of MGMT (O6-me-G methyltransferase), the DNA repair protein, was confirmed in each cell line. […]

Assay [13] has as its system GBM #9 glioblastoma multiform patient originated cells. As to the kind of experiment: Neurosphere formation inhibition, GBM #9. Format: cell-based, human. The conditions noted are these: GBM #9, type D (non-classified), Temodal 20 μM, duration 21 day. Also noted: key: S: strong effect; I: intermediate effect; R: rare effect. On the procedure:
as §3, §4

Assay [14] concerns GBM #2 glioblastoma multiform patient originated cells. As to the kind of experiment: Neurosphere formation inhibition, GBM #2. The conditions noted are these: GBM #2, type A (proneural), Temodal 20 μM, duration 15 day. Also noted: key: S: strong effect; I: intermediate effect; R: rare effect. Format: cell-based, human. On the procedure:
as §3, §4

The test system of assay [15] is GBM #10 glioblastoma multiform patient originated cells. Briefly: Neurosphere formation inhibition, GBM #10. The conditions noted are these: GBM #10, type D (non-classified), Temodal 20 μM, duration 10 day. Also noted: key: S: strong effect; I: intermediate effect; R: rare effect. The class given is cell-based, human. On the procedure:
as §3, §4

The test system of assay [16] is GBM #5 glioblastoma multiform patient originated cells. As to the kind of experiment: Neurosphere formation inhibition, GBM #5. Also noted: key: S: strong effect; I: intermediate effect; R: rare effect. As to conditions: GBM #5, type B (classical), Temodal 20 μM, duration 21 day. Format: cell-based, human. How it is done: as §3, §4
For assay [17], the system named is GBM #8 glioblastoma multiform patient originated cells. As to the kind of experiment: Neurosphere formation inhibition, GBM #8. The class given is cell-based, human. Also noted: key: S: strong effect; I: intermediate effect; R: rare effect. As to conditions: GBM #8, type C (mesenchymal), Temodal 20 μM, duration 15 day. How it is done:
(§5) Particularly, to investigate neurosphere formation, glioblastoma multiform cells were cultured for a certain time and the cells were distributed again in culture vessels, followed by additional culture. Then, the number of newly generated neurospheres was measured. First, the glioblastoma multiform patient originated cells were sub-cultured, which were distributed in a 96-well plate (20, 50, and 200 cells in 50 μl of culture medium/well). 2, 6, and 20 μM of the compound of formula 1 (azathioprine) and the compound of Comparative Example 1 (Temodal) were treated thereto by 50 μl per well to make the final concentrations of 1, 3, and 10 μM. Then, the compound of formula 1 (azathioprine) and the compound of Comparative Example 1 (Temodal) were added to 50 μl of cell culture medium with the same concentrations as the above once a week, which were then cultured for 7˜23 days. When neurosphere was formed at least 50 μm in the control group not treated with the compound, the number of neurospheres in each well was counted to compare the neurosphere formation before and after the treatment of the compound of formula 1 (azathioprine) and the compound of Comparative Example 1 (Temodal).
(§6) The glioblastoma multiform cells used in this experiment were classified into 4 types, which are type A, type B, type C, and type D, according to the gene expression pattern. […]

Assay [18] has as its system GBM #7 glioblastoma multiform patient originated cells. As to the kind of experiment: Neurosphere formation inhibition, GBM #7. The class given is cell-based, human. Details: key: S: strong effect; I: intermediate effect; R: rare effect. As to conditions: GBM #7, type B (classical), Temodal 20 μM, duration 23 day. On the procedure: as §5, §6
Assay [19] has as its system GBM #4 glioblastoma multiform patient originated cells. As to the kind of experiment: Neurosphere formation inhibition, GBM #4. Also noted: key: S: strong effect; I: intermediate effect; R: rare effect. The class given is cell-based, human. As to conditions: GBM #4, type B (classical), Temodal 20 μM, duration 9 day. How it is done:
as §3, §4

Assay [20] relates to GBM #1 glioblastoma multiform patient originated cells. Briefly: Neurosphere formation inhibition, GBM #1. Format: cell-based, human. Details: key to inhibition of neurosphere formation: S: strong effect; I: intermediate effect; R: rare effect. As to conditions: GBM #1, type A (proneural), Temodal 20 μM, duration 7 day. How it is done: as §5
The glioblastoma multiform cells used in this experiment were classified into 4 types, which are type A, type B, type C, and type D, according to the gene expression pattern. Methylation of MGMT (O6-me-G methyltransferase), the DNA repair protein, was confirmed in each cell line. At that time, type A [GBM #1, #2, #3] was proneural subtype, type B [GBM #4, #5, #6, #7] was classical subtype, type C [GBM #8] was mesenchymal subtype, and type D [GBM #9, #10] was non-classified glioblastoma multiform.

Assay [21] deals with cells of lung cancer with brain metastasis transplanted in the mouse brain. As to the kind of experiment: Animal test with cells of lung cancer with brain metastasis, survival. As to conditions: azathioprine 2 mg/kg oral every day after day 11, Temodal (TMZ) 65 mg/kg oral 5 days from day 17. Format: in vivo. On the procedure: The cells of lung cancer with brain metastasis were obtained from Samsung Hospital (Seoul) and cultured. The cultured cells (2×10^5/5 μl) were transplanted in the mouse brain. 17 days later, Temodal administration (65 mg/kg, oral administration) began, which continued for 5 days. The compound of formula 1 of the present invention (azathioprine) was co-treated to the mouse by oral-administration at the dose of 2 mg/kg every day after 11 days from the transplantation of the cells of lung cancer with brain metastasis in the mouse brain. Then, the average survival period was investigated.

Assay [22] has as its system GBM #6 glioblastoma multiform patient originated cells. As to the kind of experiment: Neurosphere formation inhibition, GBM #6. The class given is cell-based, human. Details: key: S: strong effect; I: intermediate effect; R: rare effect. As to conditions: GBM #6, type B (classical), Temodal 20 μM, duration 23 day. On the procedure: as §5, §6

As to `COc1cccc2c1C(=O)c1c(O)c3c(c(O)c1C2=O)C[C@@](O)(C(=O)CO)C[C@@H]3O[C@H]1C[C@H](N)[C@H](O)[C@H](C)O1` [Doxorubicin, reference compound], the IC50 in assay [1] is 280 nM; in [2] it was 960 nM; in [3], 700 nM; in [4] it was 550 nM; in assay [5] it was 190 nM; in assay [6] it was 350 nM. Also, the concentration for half-maximal inhibition (IC50) is 390 nM in assay [7], 230 nM in [8], 370 nM in assay [9] and 440 nM in assay [10].
For the compound “Avastin: the well-known anticancer agent”, in assay [11], the “Average Survival Period” value stood at 28 days and the “Survival Period Extension Rate (%)” value came to 8%.
For `Cn1nnc2c(C(N)=O)ncn2c1=O` [Temodal, temozolomide], the “inhibition of neurosphere formation” value in [12] is reported as “R”; in assay [13], “S”; in assay [14], “R”; in [15], “R”; in [16] it was “S”; in assay [17] it was “R”. The “inhibition of neurosphere formation” value in assay [18], in assay [19], in [20] and in assay [22] was “S” in each case. Also, the “Average Survival Period” value in assay [11] stood at 31 days; in assay [21], 63 days. The entries for the “Survival Period Extension Rate (%)” value in assay [11] and in assay [21] were 19% and 100-129%, respectively.
